# Measurements taken from PubChem BioAssay AID1963867 (Molecular Pharmacology Branch, DTP, NCI, 2024).
# pIC50: −log10 of the molar value.
# System: KRAS-mutant PDC tumor spheroid with HUVEC/MSC, viability
# Experiment: Anticancer human tumor 327498-153-R-J2-PDC patient-derived uterine carcinosarcoma cell line growth inhibition [KRAS2]
# Conditions: for pIC50: curve of first compound; for viability, T/C: stronger effect = lower value
# Method in brief: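 KRAS-mutant tumor cells were grown as spheroids with HUVEC endothelial cells and human MSCs as stroma. Targeted agents were tested alone and with KRAS pathway inhibitors. Doses started at or near clinical Cmax, or 10 microM, descending half-log.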
# [1] = second compound 0.1 µM, first compound 0.01 µM
# [2] = second compound 0.1 µM, first compound 0.0316 µM
# [3] = second compound 0.1 µM, first compound 0.1 µM
# [4] = second compound 0.1 µM, first compound 0.316 µM
# [5] = second compound 0.1 µM, first compound 1 µM
# [6] = second compound 0.1 µM, first compound 3.16 µM
# [7] = second compound 0.316 µM, first compound 0.01 µM
# [8] = second compound 0.316 µM, first compound 0.0316 µM
# [9] = second compound 0.316 µM, first compound 0.1 µM
# [10] = second compound 0.316 µM, first compound 0.316 µM
# [11] = second compound 0.316 µM, first compound 1 µM
# [12] = second compound 0.316 µM, first compound 3.16 µM
# [13] = second compound 1 µM, first compound 0.01 µM
# [14] = second compound 1 µM, first compound 0.0316 µM
# [15] = second compound 1 µM, first compound 0.1 µM
# [16] = second compound 1 µM, first compound 0.316 µM
# [17] = second compound 1 µM, first compound 1 µM
# [18] = second compound 1 µM, first compound 3.16 µM
# [19] = second compound 3.16 µM, first compound 0.01 µM
# [20] = second compound 3.16 µM, first compound 0.0316 µM
# [21] = second compound 3.16 µM, first compound 0.1 µM
# [22] = second compound 3.16 µM, first compound 0.316 µM
# [23] = second compound 3.16 µM, first compound 1 µM
# [24] = second compound 3.16 µM, first compound 3.16 µM
# [25] = second compound 10 µM, first compound 0.01 µM
# [26] = second compound 10 µM, first compound 0.0316 µM
# [27] = second compound 10 µM, first compound 0.1 µM
# [28] = second compound 10 µM, first compound 0.316 µM
# [29] = second compound 10 µM, first compound 1 µM
# [30] = second compound 10 µM, first compound 3.16 µM
# [31] = second compound 0.0316 µM, first compound 0.00316 µM
# [32] = second compound 0.0316 µM, first compound 0.01 µM
# [33] = second compound 0.0316 µM, first compound 0.0316 µM
# [34] = second compound 0.0316 µM, first compound 0.1 µM
# [35] = second compound 0.1 µM, first compound 0.00316 µM
# [36] = second compound 0.316 µM, first compound 0.00316 µM
# [37] = second compound 1 µM, first compound 0.00316 µM
# [38] = second compound 3.16 µM, first compound 0.00316 µM
# 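Also: spheroids exposed to agents for seven days before reading.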
# 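For viability, T/C in this document: 100% = DMSO vehicle wells so lower means fewer viable cells.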
Compound,pIC50 (second compound 0.1 µM),pIC50 (second compound 0.316 µM),pIC50 (second compound 1 µM),pIC50 (second compound 3.16 µM),"viability, T/C [1] [%]","viability, T/C [2] [%]","viability, T/C [3] [%]","viability, T/C [4] [%]","viability, T/C [5] [%]","viability, T/C [7] [%]","viability, T/C [8] [%]","viability, T/C [9] [%]","viability, T/C [10] [%]","viability, T/C [11] [%]","viability, T/C [13] [%]","viability, T/C [14] [%]","viability, T/C [15] [%]","viability, T/C [19] [%]","viability, T/C [20] [%]","viability, T/C [21] [%]",further results
CC(=O)OC12COC1CC(O)C1(C)C(=O)C(O)C3=C(C)C(OC(=O)C(O)C(NC(=O)OC(C)(C)C)c4ccccc4)CC(O)(C(OC(=O)c4ccccc4)C21)C3(C)C (configuration not stated) + CNCc1ccccc1-c1csc(C(C)Nc2nc(C)nc3cc(OC)c(OC)cc23)c1,> 8.00,> 8.00,> 8.00,> 8.00,7.46,5.57,5.61,7.57,8.63,7.41,5.76,8.79,6.37,9.11,9.89,6.01,6.6,8.09,0.04,0.03,"pIC50 (second compound 10 µM): > 8.00; viability, T/C [6]: 13.1%; viability, T/C [12]: 10.8%; viability, T/C [16]: 7.2%; viability, T/C [17]: 11%; viability, T/C [18]: 10.6%; viability, T/C [22]: 0.04%; viability, T/C [23]: 0.48%; viability, T/C [24]: 10.4%; viability, T/C [25]: 0.78%; viability, T/C [26]: 0.42%; viability, T/C [27]: 2.08%; viability, T/C [28]: 0.12%; viability, T/C [29]: 10.2%; viability, T/C [30]: 0.25%"
CC(=O)OC12COC1CC(O)C1(C)C(=O)C(O)C3=C(C)C(OC(=O)C(O)C(NC(=O)OC(C)(C)C)c4ccccc4)CC(O)(C(OC(=O)c4ccccc4)C21)C3(C)C (configuration not stated) + COc1cc2nc(C)nc(NC(C)c3cc(N)cc(C(F)(F)F)c3)c2cc1OC1CCOC1,> 8.00,> 8.00,> 8.00,> 8.00,8.2,6.47,7.11,7.15,9.33,7.68,5.72,6.66,6.34,9.71,7.84,5.99,6.32,10.3,5.59,6.6,"pIC50 (second compound 10 µM): > 8.00; viability, T/C [6]: 13.3%; viability, T/C [12]: 13.2%; viability, T/C [16]: 6.76%; viability, T/C [17]: 8.86%; viability, T/C [18]: 11.6%; viability, T/C [22]: 6.36%; viability, T/C [23]: 9.6%; viability, T/C [24]: 12.6%; viability, T/C [25]: 6.87%; viability, T/C [26]: 6.05%; viability, T/C [27]: 7.37%; viability, T/C [28]: 9.15%; viability, T/C [29]: 13.1%; viability, T/C [30]: 11.8%"
CC(C)NCC(C(=O)N1CCN(c2ncnc3c2C(C)CC3O)CC1)c1ccc(Cl)cc1 (configuration not stated),,,,,,,,,,,,,,,,,,,,,"viability, T/C (compound 0.0316 µM): 97.8% [middle of 5 runs]; viability, T/C (compound 0.1 µM): 77.2% [middle of 5 runs]; viability, T/C (compound 0.316 µM): 63.1% [middle of 5 runs]; viability, T/C (compound 1 µM): 48.3% [middle of 5 runs]; viability, T/C (compound 3.16 µM): 37.9% [middle of 5 runs]; viability, T/C (compound 10 µM): 25.4% [middle of 5 runs]; IC50 (curve of compound): 982 nM [middle of 5 runs]"
CC1COCCN1c1cc(-c2ccnn2C)c2ccnc(-c3ccn[nH]3)c2n1 (configuration not stated) + COc1cc2nc(C)nc(NC(C)c3cc(N)cc(C(F)(F)F)c3)c2cc1OC1CCOC1,7.89,7.68,7.81,7.88,63.9,3.7,2.44,3.52,4.74,81.8,31.4,9.52,6.32,5.51,62.1,30.1,10.6,57.9,25.2,6.64,"pIC50 (second compound 10 µM): > 8.00; viability, T/C [6]: 4.39%; viability, T/C [12]: 5.8%; viability, T/C [16]: 5.67%; viability, T/C [17]: 7.04%; viability, T/C [18]: 4.67%; viability, T/C [22]: 3.75%; viability, T/C [23]: 3.28%; viability, T/C [24]: 3.79%; viability, T/C [25]: 46.3%; viability, T/C [26]: 15.9%; viability, T/C [27]: 1.79%; viability, T/C [28]: 2.06%; viability, T/C [29]: 1.48%; viability, T/C [30]: 0.91%"
CCN1CCN(Cc2ccc(Nc3ncc(F)c(-c4cc(F)c5nc(C)n(C(C)C)c5c4)n3)nc2)CC1 + C=CC(=O)N1CCN(c2nc(OCC3CCCN3C)nc3c2CCN(c2cccc4cccc(C)c24)C3)CC1CC#N,> 8.50,> 8.50,> 8.50,> 8.50,35.4,28.2,34.2,33.7,36.4,33.1,30.1,24,33.3,37.9,23.1,21.1,19.3,0.22,0.46,0.84,"pIC50 (second compound 0.0316 µM): > 8.50; viability, T/C [31]: 55.9%; viability, T/C [32]: 46.6%; viability, T/C [33]: 33.4%; viability, T/C [34]: 35.2%; viability, T/C (second compound 0.0316 µM, first compound 0.316 µM): 34.5%; viability, T/C (second compound 0.0316 µM, first compound 1 µM): 40.4%; viability, T/C [35]: 49.1%; viability, T/C [36]: 40.5%; viability, T/C [37]: 31.1%; viability, T/C [16]: 23.5%; viability, T/C [17]: 13.5%; viability, T/C [38]: 1.79%; viability, T/C [22]: 0.58%; viability, T/C [23]: 0.24%"
CC(C)n1nc(-c2ccc3oc(N)nc3c2)c2c(N)ncnc21 + C=CC(=O)N1CCN(c2nc(OCC3CCCN3C)nc3c2CCN(c2cccc4cccc(C)c24)C3)CC1CC#N,9.47,9.23,> 9.50,> 9.50,17.2,8.1,4.85,,,15.8,9.55,4.33,,,13.2,4.83,3.23,0.14,0.14,0.21,"pIC50 (second compound 0.0316 µM): 8.99; viability, T/C (second compound 0.0316 µM, first compound 0.000316 µM): 62.7%; viability, T/C (second compound 0.0316 µM, first compound 0.001 µM): 49.2%; viability, T/C [31]: 35.1%; viability, T/C [32]: 17.8%; viability, T/C [33]: 8.35%; viability, T/C [34]: 5.42%; viability, T/C (second compound 0.1 µM, first compound 0.000316 µM): 51.6%; viability, T/C (second compound 0.1 µM, first compound 0.001 µM): 35.8%; viability, T/C [35]: 28.4%; viability, T/C (second compound 0.316 µM, first compound 0.000316 µM): 57.3%; viability, T/C (second compound 0.316 µM, first compound 0.001 µM): 43.7%; viability, T/C [36]: 28.8%; viability, T/C (second compound 1 µM, first compound 0.000316 µM): 46.5%; viability, T/C (second compound 1 µM, first compound 0.001 µM): 33%; viability, T/C [37]: 22.6%; viability, T/C (second compound 3.16 µM, first compound 0.000316 µM): 0.28%; viability, T/C (second compound 3.16 µM, first compound 0.001 µM): 0.25%; viability, T/C [38]: 0.22%"
